Data reported in EP2371816A1, “Aminocyclohexenone, their preparation and use as medicament against oxidative stress” (ABIOGEN PHARMA S.p.A., priority 2010, dated 2011).

Experiments:
[1] = pH at the semi-neutralization point of titration (pKa); type: physicochemical; conditions: titration with 0.1 N NaOH or HCl; for pKa: read-out: Acid dissociation constant: pKa
Procedure: The following equipment was used during the implementation of all the examples: • for melting point determination a Buchi B-540 instrument was used; • for pH determination at the semi-neutralization point of titration (pKa) a Mettler Toledo DL-50 instrument was used with a 0.1 N xNaOH or HCl solution; • the ^1H-NMR spectra were recorded at 300 MHz and the ^13C-NMR spectra were recorded at 75 MHz using a Varian Unity 300 instrument; • spectrophotometric measurements were carried out using a Lambda Perkin Elmer 15 UV/Vis spectrophotometer for the DPPH assay and a Wallac Victor 1420 multilabel counter spectrophotometer.

[2] = tested on: cerebral oxidative stress induced in mice by doxorubicin; assay: In vivo assay of cerebral oxidative stress induced in mice by doxorubicin; conditions: for Brain/BWi / CAT/pr / GPX/pr / GSH/pr / GST/pr / Prot. Hmg / Prot. Ox/pr / SOD/pr: % variation relative to the vehicle, 50 mg/kg IP x3 days (D = doxorubicin alone); for Brain/BWi / CAT/pr / GPX/pr / GSH/pr / GST/pr / Prot. Hmg / Prot. Ox/pr / SOD/pr / Mean % variation relative to the vehicle: healthy animals; for Mean % variation relative to the vehicle: 50 mg/kg IP days 0, 1 and 2, mean over all parameters, approximate safety index (D = doxorubicin alone)
Procedure: The assay was carried out on compounds (1) and (3)-(6) and on edaravone (E) as comparative compound.
10 mice were used for each treatment group. For each compound 50 mg/kg were administered intraperitoneally (IP) for three consecutive days (day 0, 1 and 2); half the animals (5) also received IP 16.7 mg/kg of doxorubicin immediately after the first treatment (day 0). On the day after the last administration (day 3) the animals were killed by neck dislocation and the brains were removed, weighed and frozen in liquid nitrogen.
For the analyses of oxidative stress, 100 mg/ml of brain homogenate was prepared in Hebe buffer (pH 7.4 EDTA/HEPES^(**)) containing a mixture of enzyme inhibitors (Leupeptin, Pepstatin, Aprotinin, BHA). • ^(*) Hypotonic Extraction Buffer • ^(**) 4-2-hydroxyethyl-1-piperazinyl-ethanesulphonic acid
The evaluation parameters were: • BrW/BWi: ratio between final brain weight and initial body weight (day 0); • Prot. Hmg: total proteins in the homogenate (BCA method, i.e. bicinchoninic acid); • Prot. Ox: oxidized proteins in the Hmg by means of a colorimetric method using […] (DNPH); • GSH: reduced glutathione in the supernatant (sn) of the Hmg, obtained after precipitation with metaphosphoric acid (MPA), by means of a colorimetric method using […] (DTNB); • CAT: catalase in the Hmg by a colorimetric method using potassium dichromate; • SOD: superoxide dismutase by a colorimetric method using SOD Reagent (xanthine, EDTA, nitroblue tetrazole, Na2CO3, BSA, i.e. bovine serum albumin); • GST: glutathione S-transferase in the supernatant by a colorimetric method using chlorodinitrobenzene (CDNB) and GSH; and • GPx: glutathione peroxidase in the supernatant after addition of GSH and tert butyl hydroperoxide (t-BuOOH), heating and precipitation with MPA; followed by GSH method with DTNB.
All the parameters, with the exclusion of Brain/BWi and Prot. Hmg, were normalized for total Hmg proteins (Table 3). The D value standard deviations and the % incidence relative to V are given in italics.
The mean % effect, on all the parameters simultaneously, of the triple treatment in the healthy animals, as mean percentage variation relative to the vehicle (table 4). This value is useful as an approximate safety index of the oxidative state of the brain, i.e. the capacity of the compounds of the invention not to alter cerebral homeostasis in healthy animals.
The effect of the tested compounds on the "oxidized" animals was given as % inhibition relative to the percentage variation due to doxorubicin alone. The effect of the compounds on the oxidized animals can be expressed both as a function of the values of the vehicle (healthy, vehicle only) and as a function of the value of its own control (healthy, compound only): • Vehicle: percentage [(Compound+D)/V]x100/[(V+D)/V]x100 • Its own: percentage [(Compound+D)/Compound]x100/[(V+D)/V]x100

[3] = mouse, in vivo
Procedure: The ability of the compounds of the invention to penetrate the brain was investigated by measuring their brain/plasma (B/P) concentration ratio in mice following intraperitoneal administration.
Female CD-1 mice were used (n=3 for each time period) and received the compounds of the invention by intraperitoneal administration, in 25 mg/kg doses in a 0.5% NaHCO3 buffer (pH 8.3). At predefined intervals following said administration, i.e. 5, 15, 30 and 60 minutes, the mice were killed and both plasma and total brain tissue were collected.
Specifically, after anaesthesia with ether, the animals were bled by blood withdrawal from the abdominal aorta then immediately decapitated. The blood samples were collected into plasma separator tubes containing Li-Heparin as anticoagulant and centrifuged. The resulting plasma was then stored at -20 °C. The brain was rapidly removed from the cranium and weighed, subsequently frozen and stored at -20 °C before treatment by homogenization and HPLC analysis.
The plasma was thawed and mixed with an equal volume of the extraction solution. This extraction solution was a mixture of aqueous and organic solvents whose composition had been previously determined by HPLC undertaken for each analyte.
1 ml of solution was then extracted by adding 20 µl of 70% HClO4 then centrifuged at 15,500g for 5 minutes and injected into the HPLC.
Each brain was thawed and homogenized with the extraction solution to provide a final composition of 4 ml/1g of tissue by means of an Ultra-Turrax blender and sonicated for 5 minutes. After centrifugation of the homogenate at 15,500g for 5 minutes, the resulting solution was treated with HClO4, as indicated for the plasma.
Specific chromatographic conditions had been developed for each analyte, the calibration curve being constructed for plasma and brain homogenate.

[4] = Acute toxicity study, intraperitoneal single dose (OECD guideline no. 420); type: in vivo; conditions: result in words, with reference to Example 13
Procedure: This study was carried out with the purpose of investigating the toxicity of a single dose of the listed compounds administered to ICR (CD-1) female mice. According to the current OECD guideline no.
The mice used were all female and were treated by intraperitoneal injection administration. The animals were observed individually and regularly for the first 4 hours and within 24 hours after administration, and then twice a day for the whole observation period. As soon as the animals were stabilized, observations at the weekend were undertaken once only during the day.
The evaluated parameters included the survival, body weight development, variations in skin and fur, changes in ocular, conjunctival and buccal mucous membranes, changes in activities of the respiratory, circulatory, autonomous and central nervous systems, changes in somatomotor activity and in behaviour.
Any appearance of tremors, convulsions, salivation, diarrhea, lethargy, drowsiness and coma were attentively and regularly monitored. At the end of the observation period, a post-mortem was carried out on all the animals.

[5] = TEAC method (Trolox Equivalent Antioxidant Capacity Assay); conditions: ratio of gradient to gradient of reference (trolox); 37 °C, 650 nm, pH 4.5
Text: This assay is used to measure the total antioxidant activity of pure substances, biological fluids and plant compounds and is based on the reaction of antioxidants with the cation radical ABTS^˙+ (2,2'-azinobis(3-ethylbenzothiazolin-6-sulphonate)). This cation radical is metastable and has to be generated just before the experiment by reacting ABTS with hydrogen peroxide in the presence of HRP.
This radical can be reduced, with consequent loss of absorbance, by an antioxidant whose scavenging capacity can be measured spectrophotometrically at 650 nm. The test is carried out at 37 °C and the results are obtained from a comparison with Trolox (a synthetic antioxidant and hydrophilic analogue of vitamin E).
The ABTS solution S1 was prepared as follows: • 20 mg of ABTS were added to 50 mM of citric acid buffer (40 ml) at pH=4.5 and to the resulting solution there was added an aqueous solution of HRP (4.4 mg, 400 µl) and an aqueous solution of H2O2 (10 µl of a 30% solution diluted with 16.3 ml of water).
For each of the compounds (2), (6) and (7), as synthesized above, there was prepared a 600 µM solution in water, methanol or DMSO according to its solubility, as well as a Trolox solution as reference.
Each solution was diluted to produce 6 solutions each at a concentration between 25 µM and 300 µM. From each of the diluted and divided solutions, there were withdrawn 20 µl to which 200 µl of solution S1 were then added.
The decrease in absorbance of each solution thus obtained was monitored at 650 nm until a stable value was reached (about 90 minutes).
For each set of 6 solutions and for the reference trolox solution, the absorption was given in graph form as a function of the amount of compound (nmol) in the solution. The gradient of the straight line obtained by linear interpolation was determined according to the least squares method. The TEAC value of each compound of the invention is given in the table below and is expressed as the ratio between the gradient of the resulting straight line and the gradient of the reference (trolox) straight line.

[6] = % inhibition relative to variation due to doxorubicin alone, oxidized animals, as function of its own control
[7] = % inhibition relative to variation due to doxorubicin alone, oxidized animals, as function of vehicle

Row | SMILES | pKa [1] | Brain/BWi [2] | CAT/pr [2] | GPX/pr [2] | GSH/pr [2] | GST/pr [2] | Prot. Hmg [2] | Prot. Ox/pr [2] | SOD/pr [2] | Mean % variation relative to the vehicle [2] | bioavailability at the target site / crossing of the blood-brain barrier [3] | toxicity evaluation in vivo (tolerability) [4] | TEAC [5] | further results
1 | CC1(C)CC(=O)C=C(N(O)Cc2ccccn2)C1 [(5), 3-(hydroxy(pyridin-2-ylmethyl)amino)-5,5-dimethylcyclohex-2-enone] | 4.2 | -3.3% | -6.2% | 1.5% | -0.9% | 3.1% | 0.7% | -5.5% | -2.3% | -0.4% | particularly bioavailable, as well as able to cross the blood-brain barrier in effective amounts | well tolerated |  | 
2 | CC1(C)CC(=O)C=C(NN2CCOCC2)C1 [(7), 5,5-dimethyl-3-(morpholinoamino)cyclohex-2-enone] | 2.94 |  |  |  |  |  |  |  |  |  | particularly bioavailable, as well as able to cross the blood-brain barrier in effective amounts | well tolerated | 0.8 | 
3 | O=C1O[C@H]([C@@H](O)CO)C(O)=C1O [vitamin C, reference compound] |  |  |  |  |  |  |  |  |  |  |  |  | 0.9 | 
4 | CC1(C)CC(=O)C=C(N(O)Cc2cccnc2)C1 [(4), 3-(hydroxy(pyridin-3-ylmethyl)amino)-5,5-dimethylcyclohex-2-enone] |  | -0.1% | -9.3% | 0.1% | -0.2% | 0.5% | 1.2% | -10.3% | 0.0% | 0.0% | particularly bioavailable, as well as able to cross the blood-brain barrier in effective amounts | well tolerated |  | Acid dissociation constants: pKa1 [1]: 2.70; Acid dissociation constants: pKa2 [1]: 6.47; Brain/BWi its own [2, 6]: 56.5%; CAT/pr its own [2, 6]: -43.2%; GPX/pr its own [2, 6]: -6.1%; GSH/pr its own [2, 6]: 35.2%; GST/pr its own [2, 6]: -34.1%; Prot. Hmg its own [2, 6]: -38.6%; Prot. Ox/pr its own [2, 6]: 57.6%; SOD/pr its own [2, 6]: 73.4%; Brain/BWi vehicle [2, 7]: 79.7%; CAT/pr vehicle [2, 7]: 9.1%; GPX/pr vehicle [2, 7]: -8.1%; GSH/pr vehicle [2, 7]: 39.2%; GST/pr vehicle [2, 7]: -45.1%; Prot. Hmg vehicle [2, 7]: 1.2%; Prot. Ox/pr vehicle [2, 7]: -106.4%; SOD/pr vehicle [2, 7]: 73.4%
5 | COc1cccc2c1C(=O)c1c(O)c3c(c(O)c1C2=O)C[C@@](O)(C(=O)CO)C[C@@H]3O[C@H]1C[C@H](N)[C@H](O)[C@H](C)O1 [D, doxorubicin, reference compound] |  |  | -13.2% | -9.9% | -12.5% | -9.1% | 8.3% | 17.2% | -14.3% | -11.4% |  |  |  | Brain/BWi ([2]; 50 mg/kg): -6.9%; Brain/BWi ([2]; listed as Doxo, 50 mg/kg): 6.9%
6 | O=C1C=C(NN2CCCCC2)CC(c2ccccc2)C1 (stereo not drawn) [(2), 5-phenyl-3-(piperidin-1-ylamino)cyclohex-2-enone] |  |  |  |  |  |  |  |  |  |  |  |  | 1.67 | 
